ChEMBL document CHEMBL4420066, “Aryl amine substituted quinoxaline used as anticancer drugs” (2017)
Values belong to the compound of their own block, whether it stands above or below them. Calls of active or inactive are those of the source. The calls are words filed in the database; no cut-off is given here.

Assays:
Homo sapiens [1] = species: Homo sapiens; experiment: Activation of PP2A in human HA22T cells assessed as minimal concentration causing increase in protein phosphatase activity incubated for 24 hrs using phosphopeptide substrate incubated for 10 mins by malachite green-phosphate complex assay; format: cell-based
Homo sapiens [2] = species: Homo sapiens; experiment: Activation of PP2A in human PLC5 cells assessed as minimal concentration causing increase in protein phosphatase activity incubated for 24 hrs using phosphopeptide substrate incubated for 10 mins by malachite green-phosphate complex assay; format: cell-based
Homo sapiens [3] = species: Homo sapiens; experiment: Inhibition of His-tagged recombinant human SET1 protein (1 to 290 amino acids) expressed in Escherichia coli interaction with N-terminal GST-tagged recombinant human PP2A-C (1 to 309 amino acids) assessed as minimal concentration causing disruption of SET-PP2Ac binding by SPR assay
Homo sapiens [4] = species: Homo sapiens; experiment: Activation of PP2A in human Hep3B cells assessed as minimal concentration causing increase in protein phosphatase activity incubated for 24 hrs using phosphopeptide substrate incubated for 10 mins by malachite green-phosphate complex assay; format: cell-based
Homo sapiens [5] = species: Homo sapiens; experiment: Activation of PP2A in human SKHEP1 cells assessed as minimal concentration causing increase in protein phosphatase activity incubated for 24 hrs using phosphopeptide substrate incubated for 10 mins by malachite green-phosphate complex assay; format: cell-based
Homo sapiens [6] = species: Homo sapiens; experiment: Cytotoxicity against human PLC5 cells assessed as reduction in cell viability at 0.5 to 4 uM incubated for 48 hrs by MTT assay; format: functional, cell-based
Homo sapiens [7] = experiment: Antitumor activity against human PLC5 cells xenografted in mouse assessed as reduction in tumor size at 10 mg/kg dosed for 4 weeks; format: functional, organism-based
SK-HEP1 [8] = experiment: Cytotoxicity against human SKHEP1 cells assessed as reduction in cell viability incubated for 48 hrs by MTT assay; format: functional, cell-based
Hep 3B2 [9] = experiment: Induction of apoptosis in human Hep3B cells assessed as accumulation at subG1 phase at 0.5 to 4 uM by flow cytometry; format: functional, cell-based
HA22T cell line [10] = experiment: Induction of apoptosis in human HA22T cells assessed as accumulation at subG1 phase at 0.5 to 4 uM by flow cytometry; format: functional, cell-based
Hep 3B2 [11] = experiment: Cytotoxicity against human Hep3B cells assessed as reduction in cell viability incubated for 48 hrs by MTT assay; format: functional, cell-based
HA22T cell line [12] = experiment: Cytotoxicity against human HA22T cells assessed as reduction in cell viability incubated for 48 hrs by MTT assay; format: functional, cell-based
Homo sapiens [13] = species: Homo sapiens; experiment: Induction of apoptosis in human PLC5 cells assessed as accumulation at subG1 phase at 0.5 to 4 uM by flow cytometry; format: functional, cell-based
SK-HEP1 [14] = experiment: Induction of apoptosis in human SKHEP1 cells assessed as accumulation at subG1 phase at 0.5 to 4 uM by flow cytometry; format: functional, cell-based
Homo sapiens [15] = species: Homo sapiens; experiment: Cytotoxicity against human PLC5 cells assessed as reduction in cell viability incubated for 48 hrs by MTT assay; format: functional, cell-based

SMILES: CNC(=O)c1cc(Oc2ccc(NC(=O)Nc3ccc(Cl)c(C(F)(F)F)c3)cc2)ccn1
Activity (Homo sapiens [6]): Active | Activity (Homo sapiens [7]): Active

SMILES: COc1ccc(Nc2nc3ccc([N+](=O)[O-])cc3nc2Nc2cccc(O)c2)cc1
MEC (Homo sapiens [1]): < 100 nM | MEC (Homo sapiens [2]): < 100 nM | MEC (Homo sapiens [4]): < 100 nM | MEC (Homo sapiens [5]): < 100 nM

SMILES: FS(F)(F)(F)(F)c1ccc(Nc2nc3ccccc3nc2Nc2ccc(S(F)(F)(F)(F)F)cc2)cc1
MEC (Homo sapiens [1]): < 50 nM | MEC (Homo sapiens [2]): < 50 nM | MEC (Homo sapiens [3]): 50 nM | MEC (Homo sapiens [4]): < 50 nM | MEC (Homo sapiens [5]): < 50 nM

SMILES: FC(F)(F)Oc1ccc(Nc2nc3ccccc3nc2Cl)cc1
MEC (Homo sapiens [1]): > 200 nM | MEC (Homo sapiens [2]): > 200 nM | MEC (Homo sapiens [3]): > 200 nM | MEC (Homo sapiens [4]): > 200 nM | MEC (Homo sapiens [5]): > 200 nM

SMILES: FS(F)(F)(F)(F)c1ccc(Nc2nc3ccccc3nc2Cl)cc1
MEC (Homo sapiens [1]): > 200 nM | MEC (Homo sapiens [2]): > 200 nM | MEC (Homo sapiens [3]): > 200 nM | MEC (Homo sapiens [4]): > 200 nM | MEC (Homo sapiens [5]): > 200 nM

SMILES: Clc1cccc(Nc2nc3ccccc3nc2Cl)c1
MEC (Homo sapiens [1]): > 200 nM | MEC (Homo sapiens [2]): > 200 nM | MEC (Homo sapiens [3]): > 200 nM | MEC (Homo sapiens [4]): > 200 nM | MEC (Homo sapiens [5]): > 200 nM

SMILES: Clc1cc(Cl)cc(Nc2nc3ccccc3nc2Cl)c1
MEC (Homo sapiens [1]): > 200 nM | MEC (Homo sapiens [2]): > 200 nM | MEC (Homo sapiens [3]): 100 to 200 nM | MEC (Homo sapiens [4]): > 200 nM | MEC (Homo sapiens [5]): > 200 nM

SMILES: Clc1nc2ccccc2nc1Nc1ccccc1
MEC (Homo sapiens [1]): > 200 nM | MEC (Homo sapiens [2]): > 200 nM | MEC (Homo sapiens [3]): > 200 nM | MEC (Homo sapiens [4]): > 200 nM | MEC (Homo sapiens [5]): > 200 nM

SMILES: C#Cc1cccc(Nc2ncnc3cc(OCCOC)c(OCCOC)cc23)c1
Activity (SK-HEP1 [8]): Active | Activity (Hep 3B2 [9]): Active | Activity (HA22T cell line [10]): Active | Activity (Hep 3B2 [11]): Active | Activity (HA22T cell line [12]): Active | Activity (Homo sapiens [13]): Active | Activity (SK-HEP1 [14]): Active | Activity (Homo sapiens [15]): Active

SMILES: FC(F)(F)c1cc(Nc2nc3ccccc3nc2Cl)cc(C(F)(F)F)c1
MEC (Homo sapiens [1]): > 200 nM | MEC (Homo sapiens [2]): > 200 nM | MEC (Homo sapiens [3]): > 200 nM | MEC (Homo sapiens [4]): > 200 nM | MEC (Homo sapiens [5]): > 200 nM

SMILES: Clc1nc2ccccc2nc1NCc1ccccc1
MEC (Homo sapiens [1]): > 200 nM | MEC (Homo sapiens [2]): > 200 nM | MEC (Homo sapiens [3]): > 200 nM | MEC (Homo sapiens [4]): > 200 nM | MEC (Homo sapiens [5]): > 200 nM

Further lines, with some results ahead:

MEC (Homo sapiens [3]): > 200 nM
SMILES: Nc1ccc2nc(Nc3ccc(C(F)(F)F)cc3)c(Nc3ccc(C(F)(F)F)cc3)nc2c1
MEC (Homo sapiens [1]): > 200 nM | MEC (Homo sapiens [2]): > 200 nM | MEC (Homo sapiens [4]): > 200 nM | MEC (Homo sapiens [5]): > 200 nM

MEC (Homo sapiens [3]): < 100 nM
SMILES: FC(F)(F)c1cc(Nc2nc3ccccc3nc2Nc2ccc(Cl)c(C(F)(F)F)c2)ccc1Cl
MEC (Homo sapiens [1]): 100 to 200 nM | MEC (Homo sapiens [2]): 100 to 200 nM | MEC (Homo sapiens [4]): 100 to 200 nM | MEC (Homo sapiens [5]): 100 to 200 nM

MEC (Homo sapiens [3]): > 200 nM
SMILES: COc1cccc(Nc2nc3ccc([N+](=O)[O-])cc3nc2Nc2cccc(OC)c2)c1
MEC (Homo sapiens [1]): > 200 nM | MEC (Homo sapiens [2]): > 200 nM | MEC (Homo sapiens [4]): > 200 nM | MEC (Homo sapiens [5]): > 200 nM

MEC (Homo sapiens [3]): > 200 nM
SMILES: O=[N+]([O-])c1ccc2nc(Nc3cccc(Br)c3)c(Nc3cccc(Br)c3)nc2c1
MEC (Homo sapiens [1]): > 200 nM | MEC (Homo sapiens [2]): > 200 nM | MEC (Homo sapiens [4]): > 200 nM | MEC (Homo sapiens [5]): > 200 nM

MEC (Homo sapiens [3]): < 100 nM
SMILES: FC(F)(F)Oc1ccc(Nc2nc3ccccc3nc2Nc2ccc(OC(F)(F)F)cc2)cc1
MEC (Homo sapiens [1]): 50 to 100 nM | MEC (Homo sapiens [2]): 50 to 100 nM | MEC (Homo sapiens [4]): 50 to 100 nM | MEC (Homo sapiens [5]): 50 to 100 nM

MEC (Homo sapiens [3]): < 100 nM
SMILES: Oc1ccc(Nc2nc3ccccc3nc2Nc2ccc(O)cc2)cc1
MEC (Homo sapiens [1]): 100 to 200 nM | MEC (Homo sapiens [2]): 100 to 200 nM | MEC (Homo sapiens [4]): 100 to 200 nM | MEC (Homo sapiens [5]): 100 to 200 nM

MEC (Homo sapiens [3]): > 200 nM
SMILES: O=[N+]([O-])c1ccc2nc(Nc3cccc(C(F)(F)F)c3)c(Nc3cccc(C(F)(F)F)c3)nc2c1
MEC (Homo sapiens [1]): > 200 nM | MEC (Homo sapiens [2]): > 200 nM | MEC (Homo sapiens [4]): > 200 nM | MEC (Homo sapiens [5]): > 200 nM

MEC (Homo sapiens [3]): > 200 nM
SMILES: O=[N+]([O-])c1cccc(Nc2nc3ccccc3nc2Cl)c1
MEC (Homo sapiens [1]): > 200 nM | MEC (Homo sapiens [2]): > 200 nM | MEC (Homo sapiens [4]): > 200 nM | MEC (Homo sapiens [5]): > 200 nM

MEC (Homo sapiens [3]): 100 to 200 nM
SMILES: C#Cc1cccc(Nc2nc3cc([N+](=O)[O-])ccc3nc2Nc2ccc(OC)cc2)c1
MEC (Homo sapiens [1]): 100 to 200 nM | MEC (Homo sapiens [2]): 100 to 200 nM | MEC (Homo sapiens [4]): 100 to 200 nM | MEC (Homo sapiens [5]): 100 to 200 nM

MEC (Homo sapiens [3]): 50 to 100 nM
SMILES: C#Cc1cccc(Nc2nc3ccc([N+](=O)[O-])cc3nc2Nc2cccc(C#C)c2)c1
MEC (Homo sapiens [1]): < 50 nM | MEC (Homo sapiens [2]): < 50 nM | MEC (Homo sapiens [4]): < 50 nM | MEC (Homo sapiens [5]): < 50 nM
